Test results as given in article PMC9405451, “Uptake and Immunomodulatory Properties of Betanin, Vulgaxanthin I and Indicaxanthin towards Caco-2 Intestinal Cells” (Antioxidants, 2022).

Tests used:
GCLC = GCLC mRNA level (qPCR) in cytokine-stimulated Caco-2 cells; type: cell-based, human; conditions: 5–80 μM, 6 h cytokine stimulation, vs SC
Experimental: (§1) Confluent Caco-2 cells were stimulated with a cocktail of cytokines comprised of tumour necrosis factor-α (TNF-α, 20 ng mL^−1), interleukin-1β (IL-1β, 40 ng mL^−1), interferon-γ (IFN-γ, 10 ng mL^−1) and lipopolysaccharide (LPS, 100 ng mL^−1) in the presence or absence of BET, VUL and IND treatments (5–80 µM) for 6 h. With the completion of incubations, cells were washed with cold DPBS and lysed with TRIsure reagent (Scientific Laboratory Supplies Ltd.). Total RNA of cell samples was extracted in accordance with the manufacturer’s instructions. After resuspending the RNA pellets in DEPC water, concentration and quality were determined using the NanoQuant plate (Tecan Spark 10M plate reader) at 260 and 280 nm. Reverse transcription of RNA was achieved using the iScript™ cDNA Synthesis Kit (Bio-Rad). Transcription levels of target genes—interleukin 6 (IL-6), IL-8, COX-2, iNOS, NADPH oxidase 1 (NOX-1), NAD(P)H quinone dehydrogenase 1 (NQO-1), heme oxygenase 1 (HO-1), glutamate-cysteine ligase catalytic subunit (GCLC), glutathione peroxidase 1 (GPX-1), glutathione S-transferase 1 (GSTA-1) and GSTP-1 were evaluated using SybrGreen based reagent (SensiFast SYBR Green, SLS Ltd., Galveston, TX, USA) via real-time qPCR using StepOne Plus Real-Time PCR System (Applied Biosystems, Nottingham, UK). […]

NOX-1 = NOX-1 mRNA level (qPCR) in cytokine-stimulated Caco-2 cells; type: cell-based, human; conditions: 5–80 μM, 6 h cytokine stimulation, maximum effect
Experimental: as §1

GSTM = system: GSTM; design: method as in PMID 23769299; conditions: 20 μM, human hepatocytes; cited from earlier work
iNOS = iNOS mRNA level (qPCR) in cytokine-stimulated Caco-2 cells; type: cell-based, human; conditions: 5–80 μM, 6 h cytokine stimulation, maximum effect
Experimental: as §1

Caco-2 cells = experiment: Intracellular ROS formation (DCFH2-DA) in H2O2-stressed Caco-2 cells; type: cell-based, human; conditions: throughout concentration range 5–80 μM, 200 μM H2O2
Experimental: The generation of reactive oxygen species (ROS) within Caco-2 cells was determined in 96-well plates with the probe 2′,7′-dichlorodihydrofluorescein diacetate (DCFH2-DA), which is intracellularly deacetylated and oxidised to highly fluorescent 2′,7′-dichlorofluorescein (DCF). DCFH2-DA (30 µM) dissolved in PBS with 1% FBS (v/v) was applied to the confluent Caco-2 cells and incubated for 40 min at 37 °C. After washing, cells were treated with BET, VUL and IND (5–80 μM) for 1 h and subsequently stressed with H2O2 (200 μM) for a further 1 h. The plate was scanned using Tecan Spark 10M^TM with excitation λ of 485 nm and emission λ of 535 nm. Subsequently, the protein content of each well was determined by SRB assay. Briefly, the medium was removed and the cells were washed with PBS and submerged with 50 μL of 0.004% SRB solution (w/v) in 10% trichloroacetic acid (w/v). Cells were incubated at room temperature for 15 min and washed with 1% acetic acid (200 μL, v/v). After treating with Tris base (10 mM, 100 μL), cells were incubated for 5 min under shaking conditions. Finally, the plate was scanned using a Tecan plate reader with excitation λ of 540 nm and emission λ of 590 nm. Results of the ROS assay were normalised to the relative protein content for each well and expressed as the relative fluorescence intensity % (RFI) with respect to the value of positive control.

NQO-1 [1] = experiment: NQO-1 mRNA level (qPCR) in cytokine-stimulated Caco-2 cells; type: cell-based, human; conditions: 5–80 μM, 6 h cytokine stimulation, vs SC
Experimental: as §1

IL-6 = IL-6 mRNA level (qPCR) in cytokine-stimulated Caco-2 cells; type: cell-based, human; conditions: 5–80 μM, 6 h cytokine stimulation, maximum effect
Experimental: (§2) Confluent Caco-2 cells were stimulated with a cocktail of cytokines comprised of tumour necrosis factor-α (TNF-α, 20 ng mL^−1), interleukin-1β (IL-1β, 40 ng mL^−1), interferon-γ (IFN-γ, 10 ng mL^−1) and lipopolysaccharide (LPS, 100 ng mL^−1) in the presence or absence of BET, VUL and IND treatments (5–80 µM) for 6 h. With the completion of incubations, cells were washed with cold DPBS and lysed with TRIsure reagent (Scientific Laboratory Supplies Ltd.). Total RNA of cell samples was extracted in accordance with the manufacturer’s instructions. After resuspending the RNA pellets in DEPC water, concentration and quality were determined using the NanoQuant plate (Tecan Spark 10M plate reader) at 260 and 280 nm. Reverse transcription of RNA was achieved using the iScript™ cDNA Synthesis Kit (Bio-Rad). Transcription levels of target genes—interleukin 6 (IL-6), IL-8, COX-2, iNOS, NADPH oxidase 1 (NOX-1), NAD(P)H quinone dehydrogenase 1 (NQO-1), heme oxygenase 1 (HO-1), glutamate-cysteine ligase catalytic subunit (GCLC), glutathione peroxidase 1 (GPX-1), glutathione S-transferase 1 (GSTA-1) and GSTP-1 were evaluated using SybrGreen based reagent (SensiFast SYBR Green, SLS Ltd., Galveston, TX, USA) via real-time qPCR using StepOne Plus Real-Time PCR System (Applied Biosystems, Nottingham, UK). Primers of target genes were designed and blasted using the NCBI database, whose PCR product sizes were confirmed by 2% agarose gel electrophoresis. The list of primer sequences used in the study is presented in Supplemental Table S1. The calculation of target gene levels was based upon the Livak (2^−ΔΔCT) method with normalisation to the housekeeping gene, β-actin [31].

[2] = system: differentiated Caco-2 cells; experiment: Intracellular accumulation in differentiated Caco-2 cells; type: in vitro ADME, human; conditions: 250 μM, 2 h incubation in HBSS
Experimental: For accumulation experiments, differentiated Caco-2 cells were incubated with purified BET, VUL and IND (250 μM) for 2 h in HBSS. The cell layer was washed twice with DPBS prior to being scraped into methanol, and pigments were subsequently extracted for LC-MS analysis. The total protein content of lysed cells was determined by bicinchoninic acid (BCA) assay (Pierce™ Thermo Scientific) in accordance with the manufacturer’s instructions.
(§3) Betalain compounds from the cell culture samples were quantified and identified by an ultra-high-speed LC fitted with a UV-Vis detector (SPD-20A), followed by a single quadrupole MS with an electrospray ionisation source (ESI) (Shimazu, 2020). HPLC separation was performed by a reverse phase C18 column (100 mm × 2.1 mm I.D., 3.5 μm) at the temperature of 35 °C. […] Betacyanins and betaxanthins were detected at the wavelengths of 536 nm and 486 nm, respectively, and their molecular weights were monitored by ESI-MS with positive ion mode. Compounds were identified based on the m/z values and quantified using standard curves with purified betalains, as shown in Supplemental Figure S1.

GSTP-1 = GSTP-1 mRNA level (qPCR) in cytokine-stimulated Caco-2 cells; type: cell-based, human; conditions: 5–80 μM, 6 h cytokine stimulation, vs SC
Experimental: as §1

[3] = system: differentiated Caco-2 cells; experiment: Trans-epithelial transport (AP-to-BL) across differentiated Caco-2 monolayer; type: in vitro ADME, human; conditions: AP-to-BL
Experimental: (§4) Trans-epithelial transport of purified betalains (AP-to-BL) was investigated in differentiated Caco-2 cells in 12-well plate transwell inserts (PET membrane, 0.4 μm pore size, Sarstedt) at an initial density of 1 × 10^5 cells cm^−2. Complete medium was added in both apical (AP) and basolateral (BL) chambers and was replaced every 2–3 days. Cell membrane integrity was monitored weekly through measurement of trans-epithelial electrical resistance (TEER) across the growth area until full differentiation of the cells after 21 days. During the experiment, Hanks’ balanced salt solution (HBSS) in the apical compartment was adjusted to pH 6.5 with MES (2 mM), while basolateral pH remained at 7.5 [25]. Purified BET, VUL and IND (420–1000 μM) were supplied to the apical side of the membrane and incubated at 37 °C for up to 2 h. As a marker compound of paracellular transport, phenolsulfonaphtalein (5 mM) was also applied to parallel cell membranes in the apical chamber. The study also evaluated the permeability of compounds through the Caco-2 membrane with a loosened tight junction in parallel wells which was achieved by 5-min incubation of differentiated membrane in trypsin EDTA (0.05%, v/v). The basolateral solution was collected and replaced every 30 min until 2 h, under initial rate conditions. The betalain-containing solutions were processed and submitted to LC-MS analysis, while phenolsulfonaphtalein was quantified spectrophotometrically at λ of 430 nm. TEER values were monitored at the beginning and the end of the experiment to check the impact of compounds on monolayer integrity. The apparent permeability coefficients (Papp) were calculated as per Equation (1), where V = volume of basolateral solution, A = cell growth area, C0 = initial concentration of apical betalain and dC/dt = steady-state flux across the monolayer. (1) Papp=1/C0×A·V×dC/dt
as §3

[4] = as above; type: in vitro ADME, human; conditions: human, Caco-2, 1 mM in AP chamber, apical pH 6.5, basolateral pH 7.5, read-out: Papp (apparent permeability coefficient), absorptive direction AP-to-BL
Experimental: as §4, §3

IL-8 = IL-8 mRNA level (qPCR) in cytokine-stimulated Caco-2 cells; type: cell-based, human; conditions: 5–80 μM, 6 h cytokine stimulation, maximum effect
Experimental: as §2

HO-1 = HO-1 mRNA level (qPCR) in cytokine-stimulated Caco-2 cells; type: cell-based, human; conditions: 5–80 μM, 6 h cytokine stimulation, vs SC
Experimental: as §1

COX-2 = COX-2 mRNA level (qPCR) in cytokine-stimulated Caco-2 cells; type: cell-based, human; conditions: 5–80 μM, 6 h cytokine stimulation, maximum effect
Experimental: as §1

[5] = EPR DPPH radical scavenging assay; conditions: 20 μM betalain
Experimental: (§5) Electron paramagnetic resonance (EPR) with spin trapping was used to determine superoxide and DPPH radical scavenging abilities of betalains reflected by the reduction of relative signal strength. EPR spectra were recorded 1 min after reagent mixing on a JEOL X320 spectrometer (X-band) in glass capillaries (0.8 mm ID). Superoxide assay was carried out by mixing the following solutions in 30% aqueous ethanol as solvent: hypoxanthine (1 mM, 55 μL), 5,5-dimethyl-1-pyrroline-N-oxide (DMPO) (1 M, 15 μL) and deferoxamine (10 mM, 10 μL). Individual betalains (200 and 500 μM) or solvent control were subsequently added in a volume of 10 μL. The reaction was initiated by the addition of 2 U mL^−1 xanthine oxidase (10 μL), achieving 20 and 50 μM as final concentrations of betalains in the mixture.
(§6) The 2,2-diphenyl-1-(2,4,6-trinitrophenyl)hydrazyl (DPPH) assay was conducted by mixing ethanol (40 μL) with 30% aqueous ethanol solutions of DPPH (100 μM, 50 μL) and purified betalains (200 μM, 10 μL), providing the working concentration of betalains as 20 μM. In both assays, acquisition of EPR spectra was started 1 min after reagent mixing. To improve the accuracy of measurements, the signal intensity for the superoxide assay was determined in triplicate by fitting the experimental spectra to the simulated superoxide-DMPO adduct spectra.

NQO-1 [6] = system: NQO-1; design: method as in PMID 23769299; conditions: 20 μM, human hepatocytes; cited from earlier work
GSTA-1 = GSTA-1 mRNA level (qPCR) in cytokine-stimulated Caco-2 cells; type: cell-based, human; conditions: 5–80 μM, 6 h cytokine stimulation, vs SC
Experimental: as §1

[7] = EPR spin-trapping superoxide radical scavenging assay; conditions: 20, 50 μM betalain
Experimental: as §5, §6

GPX-1 = GPX-1 mRNA level (qPCR) in cytokine-stimulated Caco-2 cells; type: cell-based, human; conditions: 5–80 μM, 6 h cytokine stimulation, vs SC
Experimental: as §1

[8] = design: method as in PMID 18959410; conditions: purified compound; cited from earlier work

In the case of `O=C(O)C1=C/C(=C/C=[N+]2/c3cc(O)c(O[C@@H]4O[C@H](CO)[C@@H](O)[C@H](O)[C@H]4O)cc3C[C@H]2C(=O)[O-])C[C@@H](C(=O)O)N1` [BET, betanin], the “Upregulation of GCLC expression” value (GCLC) is given as less than 33%, the “Attenuation of NOX-1 mRNA levels” value (NOX-1) is given as “up to 34%” and the “Increase of GSTM expression in the baseline” value (GSTM) is given as roughly 100%. The “Reduction of iNOS mRNA levels” value (iNOS) was less than 42%, the “Suppression of H2O2-stimulated ROS” value (Caco-2 cells) was less than 64% and the “Upregulation of NQO-1 expression” value (NQO-1 [1]) was less than 24%. The “Downregulation of IL-6 expression vs cytokine control (SC)” value (IL-6) was “up to 50%”, the Intracellular accumulation [2] was 0.02 nmol per mg of protein and the “Upregulation of GSTP-1 expression” value (GSTP-1) was less than 24%. The “Proportion transported within 2 h of total amount applied” value [3] was 1.0%, the Papp A→B at 2 h, 1 mM [4] was 0.415 ×10⁻⁶ cm/s and the “Downregulation of IL-8 expression vs cytokine control (SC)” value (IL-8) was no more than 39%. For the same compound, the “Upregulation of HO-1 expression” value (HO-1) was less than 24%, the “Attenuation of COX-2 mRNA levels” value (COX-2) was “up to 34%” and the “Decrease in EPR signal intensity, DPPH assay” value [5] was less than 71%. The “Increase of NQO-1 expression in the baseline” value (NQO-1 [6]) was “ca. 60%”, the “Induction of GSTA-1 expression” value (GSTA-1) was less than 51% and the “Decrease in EPR signal intensity, superoxide assay” value [7] was less than 35%. For the same compound, the “Upregulation of GPX-1 expression” value (GPX-1) was less than 23% and the “Loss along the digestion” value [8] was “up to 70%”.
